This is an account of results in PMC11402846, “Does a postmortem redistribution affect the concentrations of the 7 azaindole-derived synthetic cannabinoid 5F-MDMB-P7AICA in tissues and body fluids following pulmonary administration to pigs?” (Archives of Toxicology, 2024).

The conditions of data set [1]: death case, cited from earlier work; for central blood (CB) levels versus peripheral blood (PB) levels: PMI: 20 h, ref Zaitsu et al. ([2015]).
Data set [2] can be described thus: Perimortem and postmortem concentrations in tissues and body fluids after pulmonary administration of 5F-MDMB-P7AICA to pigs (LC-MS/MS). The conditions noted are these: pig. Format: in vivo. On the procedure:
The experiments were conducted in compliance with the German legislation on protection of animals and the National Institutes of Health Guide for the Care and Use of Laboratory Animals (permission number 32/2018). Six domestic male pigs (Swabian Hall strain; body weight [BW] 40–51.2 kg, 3 months old) were kept with free access to water and standard daily food (OlymPig fattening feed, Raiffeisen, Münster, Germany). One night prior to the experiments, the animals were kept fasting. […] The room temperature was 22 ± 1 °C with a humidity of 55 ± 10%.
As previously described (Doerr et al. [2020]; Schaefer et al. [2019], [2020a]), an ethanolic solution of 5 mg/mL 5F-MDMB-P7AICA was prepared. An aliquot of 1.600–2.048 mL was filled up with ethanol to a total volume of 2 mL, if needed to achieve a concentration of 200 µg per kg BW. The SC was administered inhalatively over 6.5–8 min, using a M-Neb flow + ventilation ultrasonic nebulizer MN-300/7 (Nebutec, Elsenfeld, Germany) in the inspiration-triggered mode.
Animal euthanasia was conducted eight hours after the drug administration using T 61 (embutramide, 0.12 mL/kg BW, Intervet Deutschland GmbH, Unterschleißheim, Germany). Afterwards, the abdominal cavity was opened. Samples of the following organs, tissues and body fluids were collected (PMI 0) and stored at − 20 °C until further analysis: Brain (cerebrum), lungs and liver with no differentiation between the lobes, kidneys, muscle tissue (from the hindleg), adipose tissue (subcutaneous (sc), dorsal, perirenal), bile fluid, duodenum content, urine (only at PMI 0) and PB (V. jugularis) as well as CB.
The abdominal cavity was sutured leaving the organs in situ and the animal bodies were kept at room temperature in a supine position. Analogously, samples were taken again after 24, 48 and 72 h (PMI 1–3), respectively. Yet, PM PB specimens were obtained by sampling the coagulated blood from the V. femoralis or V. brachialis. For this purpose, the whole vessel was sampled and the blood was drawn therefrom using a pipette with a wide lumen.
Specimens were prepared according to a previous published method (Schaefer et al. [2017], [2019], [2020a]) with changes regarding the applied buffers and the amount of acetonitrile. An amount of 2 g of solid tissue (brain, lung, liver, kidney and muscle tissue) was homogenized (1:5 w/w with water), respectively and 1 g of body fluids (bile fluid, duodenum content, and urine) was diluted (1:10 w/w for bile and duodenum content, 1:5 w/w for urine, respectively, with water). The samples were stored at − 20 °C.
To determine the standard addition calibration curves, four 0.5 g aliquots were added to 20 µL of an ethanolic stable-isotope-labeled internal standard solution (SIL-IS, 1 ng/20 µL AB-FUBINACA-d4) and 25 µL of ethanol or an ethanolic solution of the analytes.
Subsequently, the solution was mixed with 500 µL of acetate buffer and 50 µL of β-glucuronidase/arylsulfatase and incubated for 2 h at 60 °C to induce enzymatic hydrolysis of the glucuronidated DBA (phase-II metabolite).
For the following protein precipitation, the samples were mixed with 500 µL of acetonitrile and centrifuged at 3500g for 8 min. The supernatants were transferred to 1 mL phosphate buffer (pH 9) vortexed and centrifuged at 3500g for 8 min again.
Solid phase extraction (SPE) was carried out using Strata C18 end capped cartridges (Phenomenex, Aschaffenburg, Germany), previously conditioned with 2 × 3 mL methanol and 3 mL phosphate buffer. After loading the samples, the columns were washed with 3 mL phosphate buffer, 3 mL acetic acid (0.25 M) and 3 mL deionized water, respectively. 60 μL acetone was added and columns were dried for 5 min using negative pressure (about 33 kPa). Thereafter, the analytes were eluted with a mixture of 1.5 mL methanol-acetone (1:1, v/v) and the eluate was evaporated under a gentle stream of nitrogen at 60 °C. […]

On the set-up of data set [3]: method as in Walle et al. [2023]. Particulars: authentic fatal case, comparable survival time after drug intake; ref Walle et al. [2023]; cited from earlier work.
Where [4] appears, read: 200 µg/kg BW inhalative, PMI 0 (8 h after administration).
Setting [5] is: 200 µg/kg BW inhalative, PMI 1 (24 h after euthanasia, room temperature).
The mark [6] stands for this setting: 200 µg/kg BW inhalative, PMI 2 (48 h after euthanasia, room temperature).
Where [7] appears, read: 200 µg/kg BW inhalative, PMI 3 (72 h after euthanasia, room temperature).

Turning to `CN1CCCCC1Cn1cc(C(=O)c2cccc3ccccc23)c2ccccc21` (stereo not drawn) [AM-1220], in data set [1], the “central blood (CB) levels versus peripheral blood (PB) levels” value is reported as “significantly exceeded”.

In the case of `N#CCCCCn1cc(C(=O)c2cccc3ccccc23)c2ccccc21` [AM-2232], the “central blood (CB) levels versus peripheral blood (PB) levels” value in data set [1] was “significantly exceeded”.

For the molecule `CC(C)(C)C(NC(=O)c1cn(CCCCCF)c2ncccc12)C(=O)O` (stereo not drawn) [DBA, 5F-MDMB-P7AICA-dimethylbutanoic acid], in data set [2] (setting [4]), the “Mean concentration ± SD in CB (central blood)” value (“Mean concentration ± SD in CB” below) is on record as 0.22 ± 0.11 n = 6 ng/mL; the “Mean concentration ± SD in bile fluid” value is listed as 57 ± 100 n = 6 ng/g; the “Mean concentration ± SD in brain” value was “tested negative and neg”; the “Mean concentration ± SD in dorsal fat” value worked out at 0.60 ± 0.35 n = 6 ng/g. In addition, in data set [2] (setting [4]), the “Mean concentration ± SD in duodenum content” value is recorded as 82 ± 72 n = 6 ng/g, the “Mean concentration ± SD in kidney” value amounted to 5.4 ± 4.7 n = 6 ng/g, the “Mean concentration ± SD in liver” value turned out to be 0.87 ± 0.37 n = 6 ng/g and the “Mean concentration ± SD in lung” value is recorded as 0.20 ± 0.071 n = 4 ng/g. Moreover, in data set [2] (setting [4]), the “Mean concentration ± SD in muscle” value amounted to 0.14 ± 0.011 n = 3 ng/g, the “Mean concentration ± SD in perirenal fat” value is reported as 8.8 ± 5.6 n = 6 ng/g, the “Mean concentration ± SD in s.c. fat” value is listed as 1.1 ± 1.1 n = 6 ng/g and the “Mean concentration ± SD in urine” value stood at 78 ± 45 n = 6 ng/g. In data set [2] (setting [5]), the “Mean concentration ± SD in CB” value came out at 0.32 ± 0.40 n = 5 ng/mL, the “Mean concentration ± SD in PB (peripheral blood)” value (“Mean concentration ± SD in PB” below) was 0.47 ± 0.21 n = 6 ng/mL, the “Mean concentration ± SD in bile fluid” value turned out to be 37 ± 71 n = 6 ng/g and the “Mean concentration ± SD in brain” value stood at 0.13 ± 0.056 n = 6 ng/g. Further, in data set [2] (setting [5]), the “Mean concentration ± SD in dorsal fat” value turned out to be 0.28 ± 0.19 n = 6 ng/g, the “Mean concentration ± SD in duodenum content” value was 13 ± 15 n = 6 ng/g, the “Mean concentration ± SD in kidney” value was determined as 5.1 ± 5.0 n = 6 ng/g and the “Mean concentration ± SD in liver” value amounted to 1.2 ± 1.4 n = 6 ng/g. In data set [2] (setting [5]), the “Mean concentration ± SD in lung” value was 0.33 ± 0.21 n = 5 ng/g, the “Mean concentration ± SD in muscle” value is listed as 0.10 ± 0.027 n = 6 ng/g, the “Mean concentration ± SD in perirenal fat” value turned out to be 1.0 ± 1.2 n = 5 ng/g and the “Mean concentration ± SD in s.c. fat” value turned out to be 0.45 ± 0.46 n = 5 ng/g. Further, in data set [2] (setting [6]), the “Mean concentration ± SD in CB” value came to 0.21 ± 0.17 n = 5 ng/mL, the “Mean concentration ± SD in PB” value worked out at 0.48 ± 0.16 n = 6 ng/mL, the “Mean concentration ± SD in brain” value is given as 0.18 ± 0.065 n = 6 ng/g and the “Mean concentration ± SD in dorsal fat” value came to 0.16 ± 0.064 n = 4 ng/g. In data set [2] (setting [6]), the “Mean concentration ± SD in kidney” value stood at 7.0 ± 5.9 n = 6 ng/g, the “Mean concentration ± SD in liver” value came to 1.8 ± 1.2 n = 6 ng/g, the “Mean concentration ± SD in lung” value stood at 0.92 ± 0.69 n = 6 ng/g and the “Mean concentration ± SD in muscle” value came out at 0.11 ± 0.047 n = 5 ng/g. In data set [2] (setting [6]), the “Mean concentration ± SD in perirenal fat” value worked out at 2.0 ± 1.7 n = 6 ng/g and the “Mean concentration ± SD in s.c. fat” value came out at 0.18 ± 0.086 n = 5 ng/g. For the same molecule, in data set [2] (setting [7]), the “Mean concentration ± SD in CB” value is 0.20 ± 0.10 n = 5 ng/mL, the “Mean concentration ± SD in PB” value came to 0.28 ± 0.093 n = 6 ng/mL, the “Mean concentration ± SD in brain” value was found to be 0.16 ± 0.043 n = 6 ng/g and the “Mean concentration ± SD in dorsal fat” value was determined as 0.11 ± 0.033 n = 5 ng/g. In data set [2] (setting [7]), the “Mean concentration ± SD in duodenum content” value is listed as 9.0 ± 17 n = 6 ng/g, the “Mean concentration ± SD in kidney” value was determined as 6.5 ± 5.9 n = 6 ng/g, the “Mean concentration ± SD in liver” value is listed as 2.8 ± 1.9 n = 6 ng/g and the “Mean concentration ± SD in lung” value is 0.89 ± 0.57 n = 5 ng/g. Besides, in data set [2] (setting [7]), the “Mean concentration ± SD in muscle” value was 0.17 ± 0.089 n = 6 ng/g, the “Mean concentration ± SD in perirenal fat” value was 4.6 ± 3.7 n = 6 ng/g and the “Mean concentration ± SD in s.c. fat” value was found to be 0.27 ± 0.17 n = 5 ng/g. The “Concentration in bile fluid” value in data set [2] (200 µg/kg BW inhalative, PMI 3 (72 h after euthanasia, room temperature), only sampled from 2 pigs) is reported as 7.5–120 n = 2^2 ng/g. Further, the “Mean concentration ± SD in PB” value in data set [2] (5F-MDMB-P7AICA 200 µg/kg BW inhalative, PMI 0 (8 h after administration)) turned out to be 0.18 ± 0.11 n = 6 ng/mL. For the same molecule, the “Postmortem redistribution (PMR)” value in data set [2] (3 days storage at room temperature) is listed as “no relevant PMR was observed”. Also, the “Amount in the remaining tissues” value in data set [2] (PMI 0, tissues other than urine, bile fluid, duodenum content, kidney, perirenal fat) is on record as “less than 1 ng/g”. In addition, the “Concentration change in bile and duodenum” value in data set [2] (PMI 2 compared to PMI 0, p < 0.05) is “decrease was statistically significant”. The “Concentration change in dorsal and subcutaneous fat specimens” value in data set [2] (over the PMI) is “significant lower concentrations over time”. Moreover, in data set [3], the “CB concentration in fatal case” value is 46 ng/mL and the “PB concentration in fatal case” value is 5.7 ng/mL.

Turning to `Cc1ccc(C(=O)c2cn(CCCCCF)c3ccccc23)c2ccccc12` [MAM-2201], the “central blood (CB) levels versus peripheral blood (PB) levels” value in data set [1] is “significantly exceeded”.

Take `COC(=O)[C@@H](NC(=O)c1cn(CC2CCCCC2)c2ccccc12)C(C)(C)C` [MDMB-CHMICA]: the “quotient of central/peripheral blood (C/P ratio)” value in data set [1] (12 h after death, ref Gaunitz et al. [2018]) is approximately 1.
